In patent US11530458B2, “Methods of using multi-ligand metal complexes to perform oxidative catalytic pretreatment of lignocellulosic biomass” (Board of Trustees of Michigan State University, priority 2014, dated 2022):

Columns and labels:
[1] = Catalytic AOP pretreatment of hybrid poplar with multi-ligand catalysts, then enzymatic hydrolysis (glucose conversion); set-up: species or system Populus nigra var. charkoviensis×caudina cv. NE-19; conditions: for Glucose (Glucose Conversions): hybrid poplar, 270 mM NaOH, 10% H2O2, 24 hrs 30° C.
Experimental: Enzymatic hydrolysis was performed on the solid poplar slurry at 50° C. in the same rotary shaker used for the extraction step. In preparation for hydrolysis, 20 μL of 72% (w/w) H2SO4 and 500 μL of 1 M sodium citrate buffer (pH 5) (prepared from sodium citrate and citric acid) were added to the solid poplar slurry to adjust the pH to 5 (optimum pH for the enzymes being used herein). Thereafter, 40 μL of 10 mM tetracycline (Sigma-Aldrich) stock solution was added to the solid poplar slurry to inhibit microbial growth. This step was followed by addition of a Cellic CTec2 and HTec2 (Novozymes A/S, Bagsværd, DK) enzyme cocktail at a loading of 30 mg protein/g glucan in the biomass prior to extraction and catalytic pretreatment, unless otherwise noted. The enzymatic reaction (50° C., 210 rpm, 72 hrs) was carried out at 5% solids concentration by adjusting the volume of the poplar slurry to 10 mL via the addition of deionized water.
Following enzymatic hydrolysis, the resulting solid and liquid phases were separated by centrifugation in same manner as in Example 2, to produce separated hydrolyzed solid and liquid phases. The amount of glucose and xylose released into the aqueous phase was quantified by High Performance Liquid Chromatography (HPLC) (Agilent 1260 Series equipped with an Aminex® HPX-87H column operating at 65° C., a mobile phase of 0.05 M H2SO4, and a flow rate of 0.6 mL per minute, and detection by refractive index). The yield of glucose and xylose released was defined as the amount of solubilized monosaccharide divided by the total sugar content of the poplar biomass prior to incubation and catalytic pretreatment as determined by chemical composition analysis.
Hybrid poplar (0.5 g) (same source as Example 2) was catalytically pretreated using 1 mM of a stock solution of multi-ligand copper complex, namely copper (II) 2,2′ bipyridine ethylenediamine (Cu(bpy)en) containing 40 mM copper sulphate pentahydrate, 40 mM bipyridine and 40 mM ethylenediamine in deionized water, together with 270 mM NaOH and 10% H2O2 loading (w/w) on biomass in a total 5 mL volume made with deionized water. Other components of the pretreatment catalyst include tetraacetylethylenediamine (TAED), ethylenediaminetetraacetic acid (EDTA), manganese sulfate, and magnesium sulfate. The catalytic pretreatment was allowed to proceed for approximately 24 hrs at 30° C.
Thereafter, the resulting poplar slurry was pH adjusted to 5 and hydrolyzed according to the process described in Example 3. Following enzymatic hydrolysis, the solid and liquid phases were separated by centrifugation as described in Example 3.

[2] = Catalytic AOP pretreatment of alkali-extracted switchgrass, then enzymatic hydrolysis (glucose yield); set-up: species or system Panicum virgatum; conditions: 24 hr AOP pretreatment of AESG, catalyst concentration per table
Experimental: Screening of various metal ligand complexes (hereinafter “catalysts”) was performed via catalytic alkaline oxidative pretreatment (AOP) pretreatment of alkali-extracted switchgrass (AESG). To prepare AESG, 80 grams of untreated switchgrass (Panicum virgatum, cv. Cave-In-Rock, hammer milled to pass a 5-mm screen, and stored at a moisture content of approximately 5%) was soaked in an aqueous solution of 5 g/L NaOH at 80° C. for 2 hrs. The weight-to-volume (w/v) solids loading of switchgrass during alkaline extraction was 10% (e.g., 10 g of biomass in 100 mL NaOH solution). […] The washed solids was recovered as AESG and air-dried for over 7 days.
[Al(III)(3,5-^tBu2-salophen)Cl] [3,5-^tBu2-salophen=N,N′-bis(3,5-di-tert-butylsalicylidene)-1,2-phenylenediamine], [Zn(II)(BPPA)Cl]Cl [BPPA=N,N-bis(6-pivaloylamido-2-pyridylmethyl)-N-(2-pyridylmethyl)amine], and [NEt4][Fe(III)(bpb)Cl2]
To study the effect of catalytic AOP pretreatment on AESG, pretreatment was performed in a 100 g/L aqueous suspension of AESG in the presence of each catalyst. […] After 24 hrs of incubation at 30° C. without mixing, the pretreated switchgrass slurry was washed using deionized water to remove the alkaline phosphate buffer.
The enzymatic digestibility of AOP-pretreated switchgrass was estimated by the yield of glucose during the enzymatic hydrolysis of AOP pretreated AESG. The percentage yield was calculated on the basis of the glucan content in AESG prior to catalytic AOP pretreatment.
For enzymatic hydrolysis, 500 μL of 1 M Na-citrate buffer (pH 5) and 40 μL of 10 mM tetracycline (Sigma-Aldrich) were added to AOP-AESG that was not dried after catalytic AOP pretreatment. Accellerase 1500 (42 FPU/mL; Danisco-Genencor, Palo Alto, Calif.) was added at 50 mg protein per gram of glucan in AESG. The total volume of the mixture (solid and liquid) was adjusted with deionized water to reach a 5% (w/v) solids concentration, and the samples were incubated at 50° C. during hydrolysis.

[3] = catalyst concentration not given

Molecule | Glucose yield of enzymatic hydrolysis (% of theoretical maximum) ([2]; pH 3, 24 hrs hydrolysis) | Glucose yield of enzymatic hydrolysis (% of theoretical maximum) ([2]; pH 3, 72 hrs hydrolysis) | Glucose yield of enzymatic hydrolysis (% of theoretical maximum) ([2]; pH 11, 24 hrs hydrolysis) | Glucose yield of enzymatic hydrolysis (% of theoretical maximum) ([2]; pH 11, 72 hrs hydrolysis) | Glucose yield of enzymatic hydrolysis (% of theoretical maximum) ([2]; pH 10, 24 hrs hydrolysis) | further results
NCCN.[Cu+2].c1ccc(-c2ccccn2)nc1 [Cu(bpy)en, copper (II) 2,2′ bipyridine ethylenediamine] | – | – | – | – | – | Glucose (Glucose Conversions) ([1]; catalyst 1 mM): 55.00; Glucose (Glucose Conversions) ([1]; catalyst 2 mM): 48.15; Glucose yields compared to other catalyst systems ([1]; in words): higher glucose yields compared to other catalyst systems tested
O=S(=O)([O-])[O-].[Cu+2] [CuSO4, copper sulfate] | – | – | – | – | – | Glucose (Glucose Conversions) [1, 3]: 40.62
Fc1c(F)c(F)c(-c2c3nc(c(-c4c(F)c(F)c(F)c(F)c4F)c4ccc([nH]4)c(-c4c(F)c(F)c(F)c(F)c4F)c4nc(c(-c5c(F)c(F)c(F)c(F)c5F)c5ccc2[nH]5)C=C4)C=C3)c(F)c1F.[Fe+3] [Fe(III)-tetrakis-pentafluorophenyl)-porphyrin] | 29.18 ± 0.33 % of theoretical maximum | 35.38 ± 0.43 % of theoretical maximum | 35.37 ± 0.45 % of theoretical maximum | 40.25 ± 0.19 % of theoretical maximum | – | –
C1=Cc2nc1c(-c1ccccc1)c1ccc([nH]1)c(-c1ccccc1)c1nc(c(-c3ccccc3)c3ccc([nH]3)c2-c2ccccc2)C=C1.[Fe+3] [Fe(III)-tetraphenylporphyrin] | 31.55 ± 1.6 % of theoretical maximum | 42.13 ± 1.89 % of theoretical maximum | 36.98 ± 1.3 % of theoretical maximum | 42.14 ± 0.63 % of theoretical maximum | – | –
O=S(=O)([O-])[O-].[Mg+2] [MgSO4, magnesium sulfate] | – | – | – | – | – | Glucose (Glucose Conversions) [1, 3]: 25.17
CC(C)(C)c1cc(C=Nc2ccccc2N=Cc2cc(C(C)(C)C)cc(C(C)(C)C)c2[O-])c([O-])c(C(C)(C)C)c1.[Al+3].[Cl-] [[Al(III)(3,5-^tBu2-salophen)Cl]] | – | – | 29.80 ± 0.25 % of theoretical maximum | – | 28.90 ± 0.17 % of theoretical maximum | Glucose yield of enzymatic hydrolysis (% of theoretical maximum) ([2]; pH 13, 24 hrs hydrolysis): 34.19 ± 0.41 % of theoretical maximum
CC[N+](CC)(CC)CC.O=C([N-]c1ccccc1[N-]C(=O)c1ccccn1)c1ccccn1.[Cl-].[Cl-].[Fe+3] [[NEt4][Fe(III)(bpb)Cl2]] | – | – | 27.44 ± 1.54 % of theoretical maximum | 31.54 ± 0.23 % of theoretical maximum | 25.54 ± 0.21 % of theoretical maximum | Glucose yield of enzymatic hydrolysis (% of theoretical maximum) ([2]; pH 9, 24 hrs hydrolysis): 27.07 ± 0.6 % of theoretical maximum; Glucose yield of enzymatic hydrolysis (% of theoretical maximum) ([2]; pH 9, 72 hrs hydrolysis): 34.27 ± 0.21 % of theoretical maximum; Glucose yield of enzymatic hydrolysis (% of theoretical maximum) ([2]; pH 10, 72 hrs hydrolysis): 31.97 ± 0.13 % of theoretical maximum
CC(C)(C)C(=O)Nc1cccc(CN(Cc2ccccn2)Cc2cccc(NC(=O)C(C)(C)C)n2)n1.[Cl-].[Cl-].[Zn+2] [[Zn^II(BPPA)Cl]Cl, [Zn(II)(BPPA)Cl]Cl] | – | – | 27.33 ± 0.62 % of theoretical maximum | – | 26.43 ± 0.31 % of theoretical maximum | Glucose yield of enzymatic hydrolysis (% of theoretical maximum) ([2]; pH 13, 24 hrs hydrolysis): 33.36 ± 0.3 % of theoretical maximum
Fe(III)-phthalocyanine | 30.91 ± 0.24 % of theoretical maximum | 36.80 ± 2.84 % of theoretical maximum | 34.21 ± 0.23 % of theoretical maximum | 38.75 ± 1.52 % of theoretical maximum | – | –
